Assay results as given in patent US20250382322A1, “DIAGNOSTICS FOR DETECTING ECTO-5'-NUCLEOTIDASE (CD73)” (EBERHARD KARLS UNIVERSITÄT TÜBINGEN, priority 2022, published 2025).

Key:
[1] = biological target: T1, native membrane-anchored human CD73 (in MDA-MB-231 cell membrane preparations) (Homo sapiens, UniProt P21589); assay: CD73 enzyme inhibition assay with [2,8-3H]AMP, MDA-MB-231 membrane preparations; format: biochemical; conditions: [2,8-3H]AMP (5 μM) as substrate, read-out: Human CD73 MDA-MB-231 Ki ± SEM
T1 construct: membrane preparations of MDA-MB-231 cells; endogenous in cells; host or cells: MDA-MB-231 cell membrane preparations
T1 sequence (P21589 27-549 limits assumed): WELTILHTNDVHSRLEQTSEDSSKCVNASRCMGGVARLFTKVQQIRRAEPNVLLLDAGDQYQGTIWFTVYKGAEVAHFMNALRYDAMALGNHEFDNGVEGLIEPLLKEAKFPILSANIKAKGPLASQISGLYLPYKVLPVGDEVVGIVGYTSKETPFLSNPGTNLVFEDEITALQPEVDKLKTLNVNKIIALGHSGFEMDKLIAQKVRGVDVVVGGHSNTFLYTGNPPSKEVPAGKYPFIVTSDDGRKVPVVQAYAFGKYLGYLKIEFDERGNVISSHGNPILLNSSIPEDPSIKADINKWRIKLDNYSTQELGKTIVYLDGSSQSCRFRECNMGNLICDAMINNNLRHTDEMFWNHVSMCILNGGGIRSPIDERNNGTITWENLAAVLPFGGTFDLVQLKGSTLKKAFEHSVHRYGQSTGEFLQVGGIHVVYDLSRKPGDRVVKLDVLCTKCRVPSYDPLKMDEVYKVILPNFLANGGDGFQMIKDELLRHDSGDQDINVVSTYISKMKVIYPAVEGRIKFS
Experimental: Compound 2b, its precursor 1, and 20 were investigated for their CD73-inhibitory potency using tritium-labeled AMP as a substrate.^20 After incubation with CD73, non-hydrolyzed substrate and inorganic phosphate were precipitated using a solution of lanthanum chloride, and the precipitate was separated from the solution containing the reaction product [2,8-^3H]adenosine by filtration through GF/B glass fiber filters (WhatmanTM GE Healthcare, Chicago, IL, USA) using a cell harvester (M-48, Brandel, Gaitherburg, MD, USA). The filtrates (ca. 1.8 mL each) were transferred to scintillation vials, scintillation cocktail ULTIMA Gold XR (PerkinElmer, Waltham, MA, USA) was added (5 mL), and the radioactivity esd quantified by scintillation counting. CD73 preparations were (1) recombinant soluble human CD73,^13 (2) recombinant soluble rat CD73,^21 both expressed in Spodoptera frugiperda 9 (Sf) cells, (3) membrane preparations of MDA-MB-231 cells,^16 a human triple-negative breast cancer cell line with high expression of CD73,^18 and (4) membrane preparations of the 4T1.2 cell line, a mouse CD73-expressing breast cancer cell line.^22 The potency of the compounds was determined by measurements of full concentration-inhibition curves. K values were calcuated from the obtained IC50 values employing the Cheng-Prusoff equation.^23 […]

[2] = biological target: T2, human P2Y1 receptor (Homo sapiens, UniProt P47900); assay: Calcium mobilization assay at P2Y1 receptor; format: cell-based; conditions: 1231N1 astrocytoma cells
T2 construct: expressed in transfected cells; host or cells: 1321N1 astrocytoma cells (printed '1231N1 astrocytomna cells')
Experimental: Interaction of 2 with the ADP-activated human P2Y1 receptor, which is Gq protein-coupled, was determined by calcium mobilization assays. The receptor was stably expressed in 1231N1 astrocytomna cells^25, 26 (for results see Table 2). Compound 20 was not tested at the P2Y1 receptor since the fluorescent compound would interfere with the calcium mobilization assay.

T2 sequence (P47900 whole entry): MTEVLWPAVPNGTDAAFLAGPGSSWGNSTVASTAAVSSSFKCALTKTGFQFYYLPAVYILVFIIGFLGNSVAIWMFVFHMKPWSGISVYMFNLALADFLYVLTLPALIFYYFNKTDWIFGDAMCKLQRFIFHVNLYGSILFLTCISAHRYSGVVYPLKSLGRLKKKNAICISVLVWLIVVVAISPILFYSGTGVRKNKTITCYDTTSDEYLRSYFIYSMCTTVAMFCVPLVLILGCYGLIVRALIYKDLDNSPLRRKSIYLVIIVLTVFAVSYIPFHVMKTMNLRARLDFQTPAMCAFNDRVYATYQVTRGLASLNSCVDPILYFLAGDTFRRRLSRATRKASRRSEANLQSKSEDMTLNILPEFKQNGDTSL

Ki [1] [nM]	IC50 ([2]; 2-methylthio-ADP as agonist at EC80 (3 μM), read-out: Inhibition P2Y1 receptor IC50) [nM]	EC50 ([2]; read-out: Activation P2Y1 receptor EC50) [nM]	Structure (SMILES)
2.78 ± 0.47	> 10000	> 10000	CCCN(Cc1ccc(-c2cn(CCF)nn2)cc1)c1nc(Cl)nc2c1ncn2[C@@H]1O[C@H](COP(=O)(O)CP(=O)(O)O)C(O)C1O (stereo partly shown) [Compound 2]
6.76 ± 1.25			O=C(NCCCCCCNC(=O)c1ccc2c(c1)C1(OC2=O)c2ccc(O)cc2Oc2cc(O)ccc21)c1ccc(CNc2nc(Cl)nc3c2ncn3[C@@H]2O[C@H](COP(=O)(O)CP(=O)(O)O)[C@@H](O)[C@H]2O)cc1 [Compound 20, (((((2R,3S,4R,5R)-5-(2-chloro-6-((4-((6-(3′,6′-dihydroxy-3-oxo-3H-spiro[isobenzofuran-1,9′-xanthene]-6-carboxamido)-hexyl)carbamoyl)benzyl)amino)-9H-purin-9-yl)-3,4-dihydroxytetrahydrofuran-2-yl)methoxy)(hydroxy)phosphoryl)methyl)phosphonic acid]
